The values below come from ChEMBL document CHEMBL1201862, “PubChem BioAssay data set” (2004).

Assay in all cases: inhibition of tumour cell growth, NCI panel, 48 h
The test system of assay [1] is BT-549.
In assay [2] the test system is CCRF-CEM.
Assay [3] relates to HCT-116.
Assay [4] deals with HT-29.
For assay [5], the system named is IGROV-1.
For assay [6], the system named is LXFL 529.
The subject of assay [7] is M14.
For assay [8], the system named is MCF7.
The subject of assay [9] is MDA-N.
In assay [10] the test system is MOLT-4.
Assay [11] concerns NCI-H522.
Assay [12] has as its system NCI/ADR-RES.
Assay [13] deals with OVCAR-3.
The test system of assay [14] is SK-MEL-2.
Assay [15] deals with SN12C.
For assay [16], the system named is SNB-75.
The subject of assay [17] is TK-10.
For assay [18], the system named is U-251.
The subject of assay [19] is UACC-62.
Assay [20] concerns CAKI-1.

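48-hour exposure; five concentrations; linearly interpolated endpoints. GI50 = concentration required for 50% inhibition of growth.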 Active and inactive are the calls of the source. Rule as the data show it: active = GI50 up to about 1.1 µM and inactive = higher. Where only a bound is given, the exact number is not on record here.

For `Oc1cccc(-c2cc(O)c3cc4c(cc3n2)OCO4)c1`, the GI50 in assay [1] is 0.867 µM (active); in [2], 0.54 µM (active); in assay [3] it was 1.43 µM (inactive); in [4] it was 3.37 µM (inactive); in [5] it was 4.98 µM (inactive); in assay [6], 1.87 µM (inactive). Also, the GI50 in assay [7] was 3.58 µM (inactive); in assay [8] it was 3.1 µM (inactive); in [9] it was 0.231 µM (active); in [10] it was 3.77 µM (inactive); in assay [11], 0.284 µM (active); in assay [12], 1.31 µM (inactive). In addition, the GI50 was 0.193 µM (active) in assay [13]; 0.851 µM (active) in assay [14]; 3.03 µM (inactive) in [15]; 0.379 µM (active) in [16]; 13.2 µM (inactive) in assay [17]; 1.43 µM (inactive) in [18]. Moreover, the GI50 in assay [19] is 2.42 µM (inactive).

With `O=C(Nc1c(O)[nH]c(=S)[nH]c1=O)c1ccccn1`, the GI50 in assay [20], in assay [2], in assay [3], in assay [4], in [5] and in assay [6] was > 100 µM (inactive) each time. The GI50 in assay [7], in [10], in assay [11], in assay [13], in [14] and in [15] was > 100 µM (inactive) throughout. For the same compound, the GI50 in [16], in [17], in [18] and in assay [19] was > 100 µM (inactive) each time.

With `C[N+](C)(C)CCC(=O)N1C/C(=C\c2ccccc2)C(=O)/C(=C/c2ccccc2)C1`, the GI50 in assay [1] is 2.33 µM (inactive); in assay [20] it was 6.49 µM (inactive); in [2], 1.64 µM (inactive); in assay [3], 1.53 µM (inactive); in assay [4], 2.79 µM (inactive); in [5], 5.12 µM (inactive). Also, the GI50 in assay [6] was 3.78 µM (inactive); in [7], 2.72 µM (inactive); in [8] it was 1.45 µM (inactive); in [9] it was 1.9 µM (inactive); in [10] it was 2.45 µM (inactive); in assay [11], 2.25 µM (inactive). In addition, the GI50 is 1.64 µM (inactive) in assay [12]; 3.82 µM (inactive) in [13]; 15.8 µM (inactive) in assay [14]; 2.08 µM (inactive) in [15]; 7.83 µM (inactive) in assay [16]; 14.4 µM (inactive) in assay [17]. In addition, the GI50 in assay [18] is 3.03 µM (inactive); in [19], 3.58 µM (inactive).

Consider `CCCCCCCCCCCC(=O)C1=C(O)CC(O)CC1=O` (stereo unspecified), for which the GI50 in assay [20] was > 100 µM (inactive); in assay [2], 62.2 µM (inactive); in assay [3] it was > 100 µM (inactive); in assay [4], > 100 µM (inactive); in assay [5], > 100 µM (inactive); in assay [6], 83.6 µM (inactive). The GI50 was > 100 µM (inactive) in assay [7]; 88.1 µM (inactive) in assay [10]; > 100 µM (inactive) in assay [11]; 82.6 µM (inactive) in assay [13]; > 100 µM (inactive) in [14]; > 100 µM (inactive) in assay [15]. The GI50 in [16] is > 100 µM (inactive); in [17], > 100 µM (inactive); in assay [18], 91.8 µM (inactive); in assay [19], 95.1 µM (inactive).
